Measured values reported in PMC7710018, “Restoration of motor learning in a mouse model of Rett syndrome following long-term treatment with a novel small-molecule activator of TrkB” (Disease Models & Mechanisms, 2020).
Entries after “also recorded” stand apart in the source; their conditions may differ. Like-named read-outs stand apart in the source and are kept apart here.

Key:
[1] = test system: 55 pharmacologically relevant receptors; parameters: method as in Massa et al., 2010; conditions: standard screening concentration; ref Massa et al., 2010; cited from earlier work
[2] = test system: 55 pharmacologically relevant receptors; assay: Cerep ExpresSProfile screen, whole panel; conditions: 10 μM; inhibition of binding greater than 50% = significant binding
Text: To further define the specificity of PTX-BD4-3 for TrkB, we screened 55 pharmacologically relevant receptors, including neurotransmitter and G-protein coupled receptors for PTX-BD4-3 binding (Table S1). […] Thus, as with LM22A-4 ([Massa et al., 2010]), the specificity of PTX-BD4-3 for TrkB is supported by multiple lines of evidence, including receptor binding, receptor activation, receptor adaptor recruitment and cell survival assays.
To evaluate the relative binding specificity of LM22A-4 ([Massa et al., 2010]) and PTX-BD4-3, binding to a broad range of 55 pharmacologically relevant receptors, including numerous neurotransmitter and G-protein coupled receptors was assessed using standard radioligand competition binding assays (ExpressSProfile) performed by Cerep, Inc. (Seattle, WA, USA). In addition, ADME-Tox analysis was performed by Cerep, Inc. All experimental conditions are described on the Cerep website (www.cerep.fr). […]
48 Ca2+ channel (L, verapamil site) 0 ‐1.3 ‐0.7
(phenylalkylamine) (antagonist radioligand) […]
51 Na+ channel (site 2) (antagonist radioligand) 0.6 11.7 6.1
52 Cl‐ channel (GABA‐gated) (antagonist 2.7 ‐5.3 ‐1.3 […]
Table S1. In vitro binding assays. […]
(Eurofins Panlabs, MO). The results are expressed as percent inhibition of control specific binding obtained in the presence of 10 micromolar PTX-BD4-3. […]

ERK = assay: In vivo TrkB signaling, western blot of hippocampus and mPFC; parameters: species or system mouse; conditions: male Mecp2 null mice, 50 mg/kg i.p. once daily 5 days, 1 h after last injection, vs saline
Experimental: (§1) Animals were given either single or repeated doses of PTX-BD4-3 (50 mg/kg, i.p.) or vehicle (saline) and then sacrificed for tissue harvesting and western blot analysis of phosphorylated and total TrkB (pTrkB/TrkB), AKT (also known as AKT1) (pAKT/AKT) and ERK (also known as MAPK) (pERK/ERK), respectively, in the hippocampus and medial prefrontal cortex (mPFC).
(§2) Fig. 4. PTX-BD4-3 activates TrkB signaling in vivo following systemic administration in null male Mecp2 mutant mice. Null mice were treated for 5 days with once daily injections of PTX-BD4-3 (open bars, 50 mg/kg, i.p.) or saline (black bars, vehicle) and then sacrificed 1 h after the last injection. Brain lysates from the hippocampus and medial prefrontal cortex (mPFC) were processed for western blot analysis of phosphorylated and total TrkB (pTrkB^Y817/TrkB), AKT (pAKT/AKT) and ERK (pERK/ERK) as described in the Materials and Methods. For detection of total TrkB, AKT and ERK, blots were concomitantly probed with the respective total protein antibodies and each of the three bands quantitated as indicated by arrows. For ERK, the pair of bands (consistent with ERK1 and ERK2 isoforms) indicated by the brackets was quantitated together as one value. For each tissue, the same blot and images for total protein (TrkB, AKT, ERK, actin) are shown here in triplicate as an adjacent reference to phospho-protein detection. For detection of phospho-proteins in the hippocampus, blots were probed separately with the three indicated phospho antibodies. For detection in the mPFC, blots were probed separately for pTrkB and probed for pAKT and pERK concomitantly; and for the latter two, the same blot and image are shown here in duplicate as an adjacent reference to phospho-protein detection. ^§P<0.01 (compared to vehicle); *P<0.05 (compared to vehicle); Student's t-test.
(§3) Frozen tissues were lysed in RIPA lysis buffer (150 mM NaCl, 50 mM Tris, pH 7.4, 1 mM EDTA, 1% Triton X-100 or 1% NP40, 10% glycerol, 1 mM phenylmethylsulfonyl fluoride, Na3VO4 and protease inhibitor cocktail). Lysates were mixed with 4× NuPAGE LDS loading buffer and dithiothreitol, and 50 μg protein was loaded per lane on a NuPAGE 4-12% Bis-Tris gradient gel and transferred to polyvinylidene difluoride membrane (run at 100 V for 1.5 h). […]

TrkB = assay: as above; parameters: species or system mouse; conditions: male Mecp2 null mice, vs saline
Experimental: as §1, §2, §3

AKT = assay: as above; parameters: species or system mouse; conditions: male Mecp2 null mice, 50 mg/kg i.p. once daily 5 days, 1 h after last injection, vs saline
Experimental: as §1, §2, §3

Row | SMILES | binding within the panel of 55 receptors [1] | binding within the panel of 55 receptors [2] | pERK/ERK (ERK) | pTrkB/TrkB (TrkB; 50 mg/kg i.p. once daily 5 days, 1 h after last injection, hippocampus and mPFC) | expression of total TrkB, AKT or ERK (TrkB; 50 mg/kg i.p.) | pAKT/AKT (AKT)
1 | O=C(NCCO)c1cc(C(=O)NCCO)cc(C(=O)NCCO)c1 [LM22A-4, N,N′,N′′-tris(2-hydroxyethyl)-1,3,5-benzenetricarboxamide, reference compound] | no significant binding |  |  |  |  | 
2 | COCCN(C)C(=O)c1cc(C(=O)N(C)CCOC)cc(C(=O)N(C)CCOC)c1 [PTX-BD4-3, benzene-1,3,5-tricarboxylic acid tris-[(2-methoxy-ethyl)-methyl-amide]] |  | negative; also recorded: no significant binding | no significant effect | significantly increased | No differences | significantly increased
